From ChEMBL document CHEMBL1139383, “Carbonic anhydrase inhibitors. Comparison of chlorthalidone and indapamide X-ray crystal structures in adducts with isozyme II: when three water molecules and the keto-enol tautomerism make the difference” (J Med Chem, 2009) come the findings set out here.

Molecules are shown by their SMILES.

This assay concerns the target Carbonic anhydrase 3 (Homo sapiens) (UniProt P07451).

Sequence of Carbonic anhydrase 3 (Homo sapiens) (P07451 whole entry): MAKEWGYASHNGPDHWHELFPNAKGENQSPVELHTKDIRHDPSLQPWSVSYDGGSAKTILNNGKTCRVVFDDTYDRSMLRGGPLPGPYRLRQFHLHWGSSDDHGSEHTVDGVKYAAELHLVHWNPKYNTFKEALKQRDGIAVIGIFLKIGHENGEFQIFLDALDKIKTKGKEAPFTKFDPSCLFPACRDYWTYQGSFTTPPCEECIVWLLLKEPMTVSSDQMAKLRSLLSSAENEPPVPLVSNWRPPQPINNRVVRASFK
Description: Inhibition of human recombinant CA3 by stopped flow CO2 hydration assay

`NS(=O)(=O)c1cc(C2(O)NC(=O)c3ccccc32)ccc1Cl` (stereo unspecified): the Ki was 11 µM.

In general, Ki refers to a measure of affinity in units of concentration, obtained from inhibition or displacement.
